One assay has as its target PI3Kα H1047R (Homo sapiens, UniProt P42336, H1047R). Kind of assay: PI3Kα H1047R enzyme assay (Transcreener ADP2 TR-FRET Red Assay). It counts as biochemical. Conditions: purified recombinant full-length protein; 2 hours pre-incubation with compound. A digest of the protocol:
(§1)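 IC50 taken at 50 POC from a four-parameter logistic fit of TR-FRET (665/615 nm) ADP signal. Reactions used full-length recombinant enzyme, compound pre-incubation for 2 h, then 60 min with ATP and PI(4,5)P2 diC8 substrate at room temperature, pH 7.5 HEPES buffer with 25 mM MgCl2; compounds tested from 50,000 to 0.85 nM.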
A general note: In TR-FRET formats the signal depends on donor and acceptor labels being close together.

Another assay deals with PI3Kα (Homo sapiens, UniProt P42336). Nature of the assay: PI3Kα enzyme assay (Transcreener ADP2 TR-FRET Red Assay). It counts as biochemical. Conditions: purified recombinant full-length protein; 2 hours pre-incubation with compound; read-out: PI3Kα WT IC50. A digest of the protocol: as §1
PI3Kα, sequence (P42336 whole entry): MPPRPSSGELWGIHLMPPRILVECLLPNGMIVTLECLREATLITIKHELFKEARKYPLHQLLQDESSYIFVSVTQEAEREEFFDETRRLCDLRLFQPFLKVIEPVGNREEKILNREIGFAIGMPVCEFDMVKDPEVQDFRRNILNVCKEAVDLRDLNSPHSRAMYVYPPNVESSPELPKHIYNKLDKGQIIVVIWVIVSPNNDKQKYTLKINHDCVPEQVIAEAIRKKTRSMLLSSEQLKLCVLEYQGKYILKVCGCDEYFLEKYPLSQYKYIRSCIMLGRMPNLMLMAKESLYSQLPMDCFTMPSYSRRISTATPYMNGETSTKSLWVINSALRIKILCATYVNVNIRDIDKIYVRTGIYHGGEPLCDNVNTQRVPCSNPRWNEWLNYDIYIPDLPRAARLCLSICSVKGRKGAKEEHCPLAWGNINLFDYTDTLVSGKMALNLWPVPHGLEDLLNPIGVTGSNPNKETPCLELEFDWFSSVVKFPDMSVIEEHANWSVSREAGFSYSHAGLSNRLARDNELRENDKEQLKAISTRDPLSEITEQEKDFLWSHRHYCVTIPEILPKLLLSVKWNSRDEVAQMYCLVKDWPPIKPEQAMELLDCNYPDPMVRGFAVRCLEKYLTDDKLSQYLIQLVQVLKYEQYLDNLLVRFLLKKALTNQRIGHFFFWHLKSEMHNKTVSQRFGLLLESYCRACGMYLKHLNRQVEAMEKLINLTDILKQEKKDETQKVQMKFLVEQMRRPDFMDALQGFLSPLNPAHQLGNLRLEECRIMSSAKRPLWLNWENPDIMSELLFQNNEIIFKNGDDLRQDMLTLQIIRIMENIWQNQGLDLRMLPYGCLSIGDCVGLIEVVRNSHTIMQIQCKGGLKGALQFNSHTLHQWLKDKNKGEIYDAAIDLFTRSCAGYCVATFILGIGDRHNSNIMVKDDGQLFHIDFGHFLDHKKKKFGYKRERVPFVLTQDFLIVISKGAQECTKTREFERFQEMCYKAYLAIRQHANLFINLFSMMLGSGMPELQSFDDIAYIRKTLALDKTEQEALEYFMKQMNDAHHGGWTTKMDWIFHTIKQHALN
PI3Kα, sequence (P27986 2-724 partner): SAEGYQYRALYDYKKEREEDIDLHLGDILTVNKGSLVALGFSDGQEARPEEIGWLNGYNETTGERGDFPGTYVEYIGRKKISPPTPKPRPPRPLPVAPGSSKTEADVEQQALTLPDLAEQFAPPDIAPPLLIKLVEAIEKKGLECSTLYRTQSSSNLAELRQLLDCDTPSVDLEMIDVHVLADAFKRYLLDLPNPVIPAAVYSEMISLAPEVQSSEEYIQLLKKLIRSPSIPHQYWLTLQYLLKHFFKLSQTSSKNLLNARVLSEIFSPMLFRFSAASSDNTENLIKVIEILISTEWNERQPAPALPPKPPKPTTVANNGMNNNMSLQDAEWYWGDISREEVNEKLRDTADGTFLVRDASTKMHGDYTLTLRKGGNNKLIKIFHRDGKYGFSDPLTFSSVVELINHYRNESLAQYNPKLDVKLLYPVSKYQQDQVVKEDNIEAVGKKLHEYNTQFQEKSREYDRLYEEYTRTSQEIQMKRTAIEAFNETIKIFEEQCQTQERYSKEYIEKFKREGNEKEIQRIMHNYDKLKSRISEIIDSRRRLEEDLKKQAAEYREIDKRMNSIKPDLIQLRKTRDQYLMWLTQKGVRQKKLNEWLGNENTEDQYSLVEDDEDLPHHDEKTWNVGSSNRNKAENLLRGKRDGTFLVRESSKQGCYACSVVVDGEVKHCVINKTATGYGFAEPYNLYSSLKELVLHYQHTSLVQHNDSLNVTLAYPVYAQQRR
Assay [1] has as its system SKBR3 (PI3Kα-Wild Type) cell line. Kind of assay: HTRF phospho-AKT(S473) cell assay in SKBR3 cells. The assay is classed as cell-based, human. Conditions: Homo sapiens, SK-BR-3; SKBR3 (PI3Kα-Wild Type) cells, HTRF phospho-AKT(S473), 2 hours compound incubation, PDGF-BB stimulated. A digest of the protocol:
(§2)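 HTRF read-out of phospho-AKT(S473) in lysates gave IC50 values after 2 h compound exposure at 37° C. Dose series was 12 points at 1:3, topping at 5 μM for T47D and 10 μM for SKBR3. Only SKBR3 received 70 ng/ml PDGF-BB during the last 15 minutes.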

Assay [2] relates to T47D (PI3Kα-H1047R) cell line. Kind of assay: HTRF phospho-AKT(S473) cell assay in T47D cells. The assay is classed as cell-based, human. Conditions: Homo sapiens; T47D (PI3Kα-H1047R) cells, HTRF phospho-AKT(S473), 2 hours compound incubation. A digest of the protocol: as §2

Broadly, the IC50 is the midpoint of a concentration-inhibition curve.

PI3Kα H1047R, sequence (P42336 whole entry H1047R): as the sequence (P42336 whole entry) above, with H1047R counted along it
PI3Kα H1047R, sequence (P27986 2-724 partner): as the sequence (P27986 2-724 partner) above

Take `Cc1cc([C@@H](C)Nc2ccc(Cl)nc2S(=O)(=O)NC(=O)C(C)C)c2nc(N3Cc4ccc(F)cc4C3)n(C)c(=O)c2c1` [Compound 80, (R)-N-((6-chloro-3-((1-(2-(5-fluoroisoindolin-2-yl)-3,6-dimethyl-4-oxo-3,4-dihydroquinazolin-8-yl)ethyl)amino)pyridin-2-yl)sulfonyl)isobutyramide]: the IC50 was 100 to 250 nM at PI3Kα H1047R, no less than 1000 nM on PI3Kα, no less than 5000 nM in assay [1] and 500 to 1000 nM in assay [2].
Taken in the same sequence, the figures for `CCC(=O)NS(=O)(=O)c1nc(Cl)ccc1N[C@H](C)c1cc(C)cc2c(=O)n(C)c(N3Cc4ccc(F)cc4C3)nc12` [Compound 81, (R)-N-((6-chloro-3-((1-(2-(5-fluoroisoindolin-2-yl)-3,6-dimethyl-4-oxo-3,4-dihydroquinazolin-8-yl)ethyl)amino)pyridin-2-yl)sulfonyl)propionamide] were less than 100 nM, no less than 1000 nM, no less than 5000 nM and 250 to 500 nM.
Taken in the same sequence, the figures for `Cc1cc([C@@H](C)Nc2ccc(Cl)nc2C(=O)NS(C)(=O)=O)c2nc(-c3cccc(F)c3F)n(C)c(=O)c2c1` [Compound 82, (R)-6-chloro-3-((1-(2-(2,3-difluorophenyl)-3,6-dimethyl-4-oxo-3,4-dihydroquinazolin-8-yl)ethyl)amino)-N-(methylsulfonyl)picolinamide] were no less than 1000 nM, no less than 1000 nM, 1000 to 5000 nM and 500 to 1000 nM.
In the same order, the values of `Cc1cc([C@@H](C)Nc2ccc(Cl)nc2C(=O)NS(C)(=O)=O)c2nc(-c3cncc(F)c3)n(C)c(=O)c2c1` [Compound 83, (R)-6-chloro-3-((1-(2-(5-fluoropyridin-3-yl)-3,6-dimethyl-4-oxo-3,4-dihydroquinazolin-8-yl)ethyl)amino)-N-(methylsulfonyl) picolinamide] are no less than 1000 nM, no less than 1000 nM, 1000 to 5000 nM and 250 to 500 nM.
With `Cc1cc([C@@H](C)Nc2ccc(Cl)nc2C(=O)NS(C)(=O)=O)c2nc(-c3ccc(C)nc3)n(C)c(=O)c2c1` [Compound 84, (R)-6-chloro-3-((1-(3,6-dimethyl-2-(6-methylpyridin-3-yl)-4-oxo-3,4-dihydroquinazolin-8-yl)ethyl)amino)-N-(methylsulfonyl) picolinamide], the concentration for half-maximal inhibition (IC50) on PI3Kα H1047R is no less than 1000 nM; at PI3Kα it was no less than 1000 nM; in assay [1] it was 1000 to 5000 nM; in assay [2] it was 250 to 500 nM.
With `Cc1cc([C@@H](C)Nc2ccc(Cl)nc2C(=O)NS(C)(=O)=O)c2nc(-c3cccnc3C)n(C)c(=O)c2c1` [Compound 85, (R)-6-chloro-3-((1-(3,6-dimethyl-2-(2-methylpyridin-3-yl)-4-oxo-3,4-dihydroquinazolin-8-yl)ethyl)amino)-N-(methylsulfonyl) picolinamide], the IC50 at PI3Kα H1047R was no less than 1000 nM; on PI3Kα, no less than 1000 nM; in assay [1], no less than 5000 nM; in assay [2], 1000 to 5000 nM.
`Cc1cc([C@@H](C)Nc2ccc(Cl)nc2C(=O)NS(C)(=O)=O)c2nc(-c3cnc(C)nc3)n(C)c(=O)c2c1` [Compound 86, (R)-6-chloro-3-((1-(3,6-dimethyl-2-(2-methylpyrimidin-5-yl)-4-oxo-3,4-dihydroquinazolin-8-yl)ethyl)amino)-N-(methylsulfonyl) picolinamide]: the IC50 is no less than 1000 nM on PI3Kα H1047R, no less than 1000 nM on PI3Kα, 1000 to 5000 nM in assay [1] and 500 to 1000 nM in assay [2].
For `C[C@@H](Nc1ccc(Cl)nc1C(=O)NS(C)(=O)=O)c1cc(F)cc2c(=O)n(C)c(-c3cccc(F)c3F)nc12` [Compound 87, (R)-6-chloro-3-((1-(2-(2,3-difluorophenyl)-6-fluoro-3-methyl-4-oxo-3,4-dihydroquinazolin-8-yl)ethyl)amino)-N-(methylsulfonyl) picolinamide], the half-inhibitory concentration (IC50) at PI3Kα H1047R was no less than 1000 nM; at PI3Kα it was no less than 1000 nM; in assay [1], no less than 5000 nM; in assay [2], 1000 to 5000 nM.
In the case of `Cc1cc([C@@H](C)Nc2ccc(Cl)nc2C(=O)NS(C)(=O)=O)c2nc(-c3ccc(F)cn3)n(C)c(=O)c2c1` [Compound 88, (R)-6-chloro-3-((1-(2-(5-fluoropyridin-2-yl)-3,6-dimethyl-4-oxo-3,4-dihydroquinazolin-8-yl)ethyl)amino)-N-(methylsulfonyl) picolinamide], the IC50 on PI3Kα H1047R was no less than 1000 nM; on PI3Kα it was no less than 1000 nM; in assay [1], 1000 to 5000 nM; in assay [2], 250 to 500 nM.
In the case of `Cc1cc([C@@H](C)Nc2ccc(Cl)nc2C(=O)NS(C)(=O)=O)c2nc(-c3cnc(C)s3)n(C)c(=O)c2c1` [Compound 89, (R)-6-chloro-3-((1-(3,6-dimethyl-2-(2-methylthiazol-5-yl)-4-oxo-3,4-dihydroquinazolin-8-yl)ethyl)amino)-N-(methylsulfonyl) picolinamide], the IC50 at PI3Kα H1047R was 100 to 250 nM; at PI3Kα, 500 to 1000 nM; in assay [1], 1000 to 5000 nM; in assay [2], less than 250 nM.
For `C[C@@H](Nc1ccc(Cl)nc1C(=O)NS(C)(=O)=O)c1cc(F)cc2c(=O)n(C)c(-c3cncc(F)c3)nc12` [Compound 90, (R)-6-chloro-3-((1-(6-fluoro-2-(5-fluoropyridin-3-yl)-3-methyl-4-oxo-3,4-dihydroquinazolin-8-yl)ethyl)amino)-N-(methylsulfonyl) picolinamide], the 50% inhibitory concentration (IC50) on PI3Kα H1047R is no less than 1000 nM; on PI3Kα, no less than 1000 nM; in assay [1] it was 1000 to 5000 nM; in assay [2] it was 1000 to 5000 nM.
For `Cc1cc([C@@H](C)Nc2ccc(Cl)nc2C(=O)NS(C)(=O)=O)c2nc(-c3cnc(C)c(F)c3)n(C)c(=O)c2c1` [Compound 91, (R)-6-chloro-3-((1-(2-(5-fluoro-6-methylpyridin-3-yl)-3,6-dimethyl-4-oxo-3,4-dihydroquinazolin-8-yl)ethyl)amino)-N-(methylsulfonyl) picolinamide], the half-inhibitory concentration (IC50) at PI3Kα H1047R was 250 to 500 nM; at PI3Kα it was no less than 1000 nM; in assay [1] it was 1000 to 5000 nM; in assay [2], less than 250 nM.
In the same order, the values of `Cc1cc([C@@H](C)Nc2ccc(Cl)nc2C(=O)NS(C)(=O)=O)c2nc(C3CCCCC3)n(C)c(=O)c2c1` [Compound 92, (R)-6-chloro-3-((1-(2-cyclohexyl-3,6-dimethyl-4-oxo-3,4-dihydroquinazolin-8-yl)ethyl)amino)-N-(methylsulfonyl) picolinamide] are less than 100 nM, no less than 1000 nM, 1000 to 5000 nM and less than 250 nM.
Taken in the same sequence, the figures for `Cc1cc([C@@H](C)Nc2ccc(Cl)[nH]c2=O)c2nc(N3Cc4ccc(F)cc4C3)n(C)c(=O)c2c1` [Compound 93, (R)-8-(1-((6-chloro-2-oxo-1,2-dihydropyridin-3-yl)amino)ethyl)-2-(5-fluoroisoindolin-2-yl)-3,6-dimethylquinazolin-4(3H)-one] were no less than 1000 nM, no less than 1000 nM, no less than 5000 nM and less than 250 nM.
In the same order, the values of `Cc1cc([C@@H](C)Nc2ccc[nH]c2=O)c2nc(N3Cc4ccc(F)cc4C3)n(C)c(=O)c2c1` [Compound 94, (R)-2-(5-fluoroisoindolin-2-yl)-3,6-dimethyl-8-(1-((2-oxo-1,2-dihydropyridin-3-yl)amino)ethyl)quinazolin-4(3H)-one] are no less than 1000 nM, no less than 1000 nM, no less than 5000 nM and 1000 to 5000 nM.

For the origin of these results see patent US12281122B1, “PI3K inhibitors” (Cogent Biosciences, Inc., priority 2023, dated 2025).
